Reference: the NIST ThermoML archive (doi:10.1021/acs.jced.7b00316)
± gives the expanded uncertainty stated by the source.

Columns and labels:
[1] = Crystal; DTA
[2] = Molar enthalpy of transition or fusion; settings: Crystal; DSC

On1nnc2ccccc21 [1-benzotriazolol]
Normal melting temperature [1]: 151.11 ± 1.1 °C
Molar enthalpy of transition or fusion [2]: 4.79 ± 0.217 kcal/mol
